≈ marks a conversion by molar mass, not a printed value. Like-named read-outs stand apart in the source and are kept apart here.
Columns and labels:
S. aureus Smith A9537 = assay: Antibiotic activity in nutrient broth (MIC); assay type: cell-based; conditions: derivatives adjusted for BL-S640 content
Excerpt: (§1) Antibiotic Activity In Nutrient Broth
(§2) ** Dilution of overnight broth culture.
(§3) Antibiotic Spectrum Nutrient Broth
(§4) Antibiotic Spectrum in Nutrient Broth

E. coli A9675 = assay: Antibiotic activity in nutrient broth (MIC); assay type: cell-based; conditions: derivatives adjusted for BL-S640 content
Excerpt: as §1, §2, §3, §4

K. pneumoniae A9977 = assay: Oral PD50 in mice; assay type: in vivo; conditions: Klebsiella pneumoniae, read-out: PD50
Procedure: (§5) Comparative Oral PD50 Values of
(§6) BL-S640 Derivatives in Mice
(§7) *Mice were treated at 1 and 3.5 hours post-challenge.

P. mirabilis A9707 = assay: Oral PD50 in mice; assay type: in vivo; conditions: Proteus mirabilis, mice treated at 1 and 3.5 hours post-challenge
Procedure: as §5, §6, §7

S. pyogenes A9604 = assay: Oral PD50 in mice; assay type: in vivo; conditions: Streptococcus pyogenes, mice treated at 1 and 3.5 hours post-challenge
Procedure: as §5, §6, §7

E. coli A15119 = assay: Oral PD50 in mice; assay type: in vivo; conditions: for ED50: Escherichia coli, A15119, po, 3.5 h, read-out: PD50
Procedure: as §5, §6, §7

Rat blood levels = assay type: in vivo; conditions: in words
[1] = Stability of aqueous solutions; assay type: physicochemical
Water solubility = assay type: physicochemical; conditions: for solubility: read-out: Solubility in water
[2] = Detection in urine (with mouse blood levels); assay type: in vivo; conditions: no evidence of the derivative
bacterial spectrum = assay: Antibacterial activity / MIC bacterial spectrum compared with parent; assay type: cell-based; conditions: in words
Excerpt: |Antibiotic Activity In Nutrient Broth

[3] = IR-NMR: cyclic / non cyclic derivative in solution; assay type: physicochemical; conditions: 70 mg/ml
Stability of solids = assay type: physicochemical; conditions: solid; 1 month at 56° C.; read-out: Stability of Solids (loss)
[4] = Staphylococcus aureus, SMITHA9537, inoculum 10^-4, + 50% serum, read-out: MIC
[5] = Escherichia coli, A9675, inoculum 10^-4, read-out: MIC
[6] = A9977, oral, mice treated at 1 and 3.5 hours post-challenge
[7] = oral, mice treated at 1 and 3.5 hours post-challenge
[8] = Staphylococcus aureus, SMITHA9537, inoculum 10^-4, nutrient broth, read-out: MIC

Row | SMILES | MIC (S. aureus Smith A9537; [4]) | MIC (E. coli A9675; [5]) | ED50 (K. pneumoniae A9977; [6]) | ED50 (P. mirabilis A9707) | ED50 (S. pyogenes A9604) | ED50 (E. coli A15119; [7]) | ED50 (E. coli A15119) | MIC (S. aureus Smith A9537; [8]) | solubility (Water solubility) | also measured
1 | N[C@@H](C(=O)N[C@@H]1C(=O)N2C(C(=O)O)=C(CSc3cnn[nH]3)CS[C@H]12)c1ccc(O)cc1 [BL-S640, 7-[D-α-amino-α-(p-hydroxyphenyl)acetamido]-3-(1,2,3-triazol-5-ylthiomethyl)-3-cephem-4-carboxylic acid, reference compound] | 4 µg/mL | 4 µg/mL (≈ 8.65 µM) | 1.6 mg/kg | 2.4 mg/kg | 0.4 mg/kg | 4.1 mg/kg | 1.4 mg/kg |  |  | MIC (S. aureus Smith A9537; inoculum 10^-4, + 50% serum): 2 µg/mL; MIC (E. coli A9675; inoculum 10^-4): 2 µg/mL (≈ 4.32 µM)
2 | O=C(O)C1=C(CSc2cnn[nH]2)CS[C@@H]2[C@H](N3C(=O)[C@@H](c4ccc(O)cc4)NC3c3ccc(S(=O)(=O)O)o3)C(=O)N12 (stereo partly drawn) [BL-S1027] | 2 µg/mL | 4 µg/mL (≈ 6.44 µM) |  | 1.8 mg/kg |  |  |  | 0.27 µg/mL (≈ 0.435 µM) | > 500 mg/mL | Intramuscular rat blood levels compared with BL-S640 (Rat blood levels; intramuscular): equal to that of BL-S640; Oral rat blood levels compared with BL-S640 (Rat blood levels; oral): equal to that of BL-S640; Storage of aqueous solutions, loss in activity ([1]; 250, 25 and 10 mg. BL-S640 activity/ml., 4° C. or room temperature, at least 24 hours): no significant loss in activity; Stability of solution in water: stable (retained full bioactivity) ([1]; 25,000 mcg./ml., 6° C. (refrigerator)): 14 days; Stability of solution in water ([1]; 25,000 mcg./ml., room temperature, for at least three days): stable (retained full bioactivity) for at least three days; degraded at 24 h ([1]; water, 250, 25 and 10 mg./ml. of BL-S640 activity, at least 24 hours at room temperature, read-out: Stability of solutions (loss)): < 10%; MIC (S. aureus Smith A9537; inoculum 10^-4, nutrient broth): 0.25 µg/mL (≈ 0.403 µM); Solubility in water (Water solubility): > 400 mg/mL; Form appearing in urine [2]: BL-S640 appeared in urine with no evidence; MIC bacterial spectrum / activity compared with parent (bacterial spectrum): equal to that of BL-S640; non cyclic derivative in solution [3]: 20%; degraded (Stability of solids): < 10%
3 | O=C(O)COc1ccccc1C1N[C@H](c2ccc(O)cc2)C(=O)N1[C@@H]1C(=O)N2C(C(=O)O)=C(CSc3cnn[nH]3)CS[C@H]12 (stereo partly drawn) [BL-S1048] | 2 µg/mL | 2 µg/mL (≈ 3.2 µM) |  | 2.4 mg/kg | 0.2 mg/kg | 3.1 mg/kg | 1.6 mg/kg | 0.13 µg/mL (≈ 0.208 µM) |  | ED50 (K. pneumoniae A9977; A9977, po, 3.5 h): 0.7 mg/kg
4 | O=C(O)C1=C(CSc2cnn[nH]2)CS[C@@H]2[C@H](N3C(=O)[C@@H](c4ccc(O)cc4)NC3c3ccccc3S(=O)(=O)O)C(=O)N12 (stereo partly drawn) [BL-S1055] | 2 µg/mL | 4 µg/mL (≈ 6.34 µM) | 1.6 mg/kg | 1 mg/kg | 0.4 mg/kg | 1.8 mg/kg |  | 0.13 µg/mL (≈ 0.206 µM) | > 400 mg/mL | degraded at 1 h (physchem): 70.5%; degraded at 2 h (physchem): 88%; PD50 (E. coli A15119; [7]): 1.6 mg./kg./treatment

— US4026888A, “Certain derivatives of particular 3-thiolated cephalosporins” (priority 1976, dated 1977)
